Measured values reported in ChEMBL document CHEMBL6134926, “Targeting KRAS G12D Mutations: Advances in Small Molecule Inhibitors and PROTAC Technology” (ACS Med Chem Lett, 2025).

Experiments:
[1] = (§1) Inhibition of GST-tagged KRAS G12V mutant (2 to 169 residues) (unknown origin)/SOS1 catalytic domain (564 to 1069 residues) (unknown origin) protein-protein interaction preincubated with compound for 90 mins followed by SOS1 and GTP-DY-647P1 addition and measured after 60 mins by fluorescence based nucleotide exchange assay; parameters: species or system Homo sapiens
[2] = Inhibition of ERK phosphorylation in human GP2d cells harboring KRAS G12D mutant incubated for 3 hrs by ICW assay; type: cell-based
[3] = target: SOS1-KRAS (Homo sapiens, UniProt P01116, G12D); experiment: as §1, with “G12D” for “G12V”, “30” for “60”; type: protein-complex assay

## CN(C)C(=O)c1nn2c(c1Cl)CN(c1nc(OC[C@@]34CCCN3C[C@H](F)C4)nc(N3CCC(c4c(Cl)sc(N)c4C#N)C3)c1C#N)CCC2 (stereo partly specified)
[1]
  IC50: < 10 nM
[2]
  IC50: 10 nM
[3]
  IC50: < 10 nM

## CN(C)C(=O)c1nn2c(c1Cl)CN(c1nc(OC[C@@]34CCCN3C[C@H](F)C4)nc(N3CC(c4csc(N)c4C#N)C3)c1C#N)CCC2
[1]
  IC50: < 10 nM
[2]
  IC50: 100 nM
[3]
  IC50: < 10 nM

## CC1(c2csc(N)c2C#N)CN(c2nc(OC[C@@]34CCCN3C[C@H](F)C4)nc(N3C[C@H]4CC[C@@H](C3)N4)c2C#N)C1
[2]
  IC50: 10 nM
[3]
  IC50: < 10 nM

## CN(C)C(=O)c1nn2c(c1Cl)CN(c1cc(N3CC(C)(c4csc(N)c4C#N)C3)nc(OC[C@@]34CCCN3C[C@H](F)C4)n1)CCC2
[2]
  IC50: 1000 nM
[3]
  IC50: 10 nM

## CN(C)C(=O)c1nn2c(c1Cl)CN(c1nc(OC[C@@]34CCCN3C[C@H](F)C4)nc(N3CC(c4c(Cl)sc(N)c4C#N)C3)c1C#N)CCC2
[1]
  IC50: < 10 nM
[2]
  IC50: 1 nM
[3]
  IC50: < 10 nM

## C[C@H](c1cccnc1N)N(C)c1nc(OC[C@@]23CCCN2C[C@H](F)C3)nc(N2CC(C)(c3csc(N)c3C#N)C2)c1C#N
[1]
  IC50: < 10 nM
[2]
  IC50: 10 nM
[3]
  IC50: < 10 nM
